How the values were obtained:
Format in all cases: cell-based
HSL = test: RT-PCR of lipolysis-related gene HSL in adipocytes; details: 3T3-L1 adipocytes, 5 μM and 50 μM peptide, 72 hours, GAPDH internal control
Method: (§1) First, in order to differentiate pre-adipocytes into adipocytes, pre-adipocytes and 3T3-L1 cells purchased from the American Type Culture Collection (ATCC) were cultured in DMEM including 2% fetal bovine serum (FBS). In order to differentiate 3T3-L1 cells into adipocytes, the culture was dispensed into a 12-well plate at a density of 1×10^5 cells/well, and 2 days after the time-point of achieving the confluent growth (day 0), the culture medium was replaced with DMEM medium including 10% FBS, 10 μg/mL insulin, 0.5 mM isobutylmethylxanthine (IBMX)(Sigma, USA), and 1 μM dexamethasone (Sigma. USA), and cultured. After 2 days (day 2), the culture medium was replaced with DMEM medium including 10% FBS and 10 μg/mL insulin and cultured, and 3 days thereafter (day 5), the culture medium was replaced with a medium including only 10% FBS Two days thereafter (day 7), the cells were named 3T3-L1 adipocytes and cultured under the conditions of 37° C., 5% CO2 environment. The adipocytes which were induced to differentiate for 10 days were used in subsequent experiments.
(§2) In adipocytes, in order to confirm whether the peptide of the present invention has the effect of activating the lipolysis-promoting cell signaling pathway. mRNA expression levels of HSL, ATGL, and perilipin1 genes associated with lipolysis promotion were examined. […]

ATGL = test: RT-PCR of lipolysis-related gene ATGL in adipocytes; details: 3T3-L1 adipocytes, 5 μM and 50 μM peptide, 72 hours, GAPDH internal control
Method: as §1, §2

perilipin1 = test: RT-PCR of lipolysis-related gene perilipin1 in adipocytes; details: 3T3-L1 adipocytes, 5 μM and 50 μM peptide, 72 hours, GAPDH internal control
Method: as §1, §2

pHSL = test: Western blot of pHSL in adipocytes; details: 3T3-L1 adipocytes, 5 μM and 50 μM peptide, 1 hour, Western blot with anti-pHSL antibody
Method: as §1, with “The adipocytes which were induced to differentiate for 10 days were used in subsequent experiments.” left out
Specifically, the adipocytes differentiated in Preparation Example 1 were treated with 5 μM and 50 μM of the peptide of SEQ ID NO: 1, and after 1 hour, the cells were recovered and treated with a cell lysis buffer to obtain a lysate. Then, the protein was quantified and subjected to Western blotting using an anti-pHSL antibody (Cell Signaling Technology (CST), USA).

3T3-L1 adipocytes = test: Glycerol colorimetric assay, free glycerol released from adipocytes; details: 5 μM and 50 μM peptide, 48 hours, supernatant
Method: as §1, with “The adipocytes which were induced to differentiate for 10 days were used in subsequent experiments.” left out
Specifically, adipocytes differentiated in Preparation Example 1 were treated with the peptide of SEQ ID NO: 1 at concentrations of 5 μM and 50 μM, and treated with 20 nM of TNFα, as a positive control, followed by culturing for 48 hours. After obtaining the supernatant, the amount of glycerol was measured using a glycerol colorimetric assay kit (Cayman Chemical, USA).

PGC1α = test: RT-PCR of thermogenesis-related gene PGC1α in adipocytes; details: 3T3-L1 adipocytes, 5 μM and 50 μM peptide, 72 hours, GAPDH internal control
Method: as §1
(§3) In order to confirm whether the peptide of the present invention has the effect of preventing or treating obesity, the levels of mRNA expression of PGC1α1, Tbx1, FGF21, and UCP1, which are thermogenesis-related genes in brown adipocytes, were examined. […]

Tbx1 = test: RT-PCR of thermogenesis-related gene Tbx1 in adipocytes; details: 3T3-L1 adipocytes, 5 μM and 50 μM peptide, 72 hours, GAPDH internal control
Method: as §1, §3

FGF21 = test: RT-PCR of thermogenesis-related gene FGF21 in adipocytes; details: 3T3-L1 adipocytes, 5 μM and 50 μM peptide, 72 hours, GAPDH internal control
Method: as §1, §3

UCP1 [1] = test: RT-PCR of thermogenesis-related gene UCP1 in adipocytes; details: 3T3-L1 adipocytes, 5 μM and 50 μM peptide, 72 hours, GAPDH internal control
Method: as §1, §3

PRDM16 = test: Western blot of thermogenesis-related protein PRDM16 in adipocytes; details: 3T3-L1 adipocytes, 5 μM and 50 μM peptide, 24 hours
Method: as §1, with “The adipocytes which were induced to differentiate for 10 days were used in subsequent experiments.” left out
(§4) Specifically, the adipocytes obtained in Preparation Example 1 were treated with 5 μM and 50 μM of the peptide of SEQ ID NO: 1, respectively. […] Then, the protein was quantified and subjected to Western blotting was performed using an anti-PRDM16 antibody (Cell signaling technology (CST), USA) and an anti-UCP1 antibody (Abcam, England).

UCP1 [2] = test: Western blot of thermogenesis-related protein UCP1 in adipocytes; details: 3T3-L1 adipocytes, 5 μM and 50 μM peptide, 24 hours
Method: as §1, with “The adipocytes which were induced to differentiate for 10 days were used in subsequent experiments.” left out
as §4

## DYNMKWIHVY [SEQ ID NO: 1]
HSL
  mRNA expression of HSL gene: increased
ATGL
  mRNA expression of ATGL gene: increased
perilipin1
  mRNA expression of perilipin1 gene: increased
pHSL
  phosphorylation of HSL protein: increased
3T3-L1 adipocytes
  amount of glycerol released: increased in a concentration-dependent manner
PGC1α
  mRNA expression of PGC1α gene: increased
Tbx1
  mRNA expression of Tbx1 gene: increased
FGF21
  mRNA expression of FGF21 gene: increased
UCP1 [1]
  mRNA expression of UCP1 gene: increased
PRDM16
  expression of PRDM16 protein: increased
UCP1 [2]
  expression of UCP1 protein: increased
